Tests used:
[1] = tested on: PTZ-induced clonic seizures in mice; experiment: PTZ seizure test; type: in vivo; details: PTZ 100 mg/kg s.c.; compound 100 mg/kg i.p.
Protocol: (§1) Behavioral experiments were carried out in male Albino Swiss (CD-1) mice weighing 18–22 g. The mice were kept in cages, in groups of 10 animals. They had free access to food and water before experiments, and were maintained at room temperature 22–24 °C, under 12:12 (light/dark) cycle. For the assays the animals were selected randomly. After the experiments the animals were euthanized by cervical dislocation. Experimental procedures for in vivo tests were approved by the Local Ethics Committee of the Jagiellonian University in Krakow (Approval No. 33/2018; release date: 1.02.2018) and the treatment of animals was performed in full accordance with ethical standards laid down in respective Polish and EU regulations (Directive 2010/63/EU).
Oxaliplatin was purchased from Activate Scientific GmbH (Prien, Germany). PTZ and STZ were provided by Merck KGaA (Darmstadt, Germany). For the in vivo tests, the compound 1 was suspended in 1% Tween 80 solution (Polskie Odczynniki Chemiczne, Gliwice, Poland), then being administered intraperitoneally 1 h before tests. […]
This test was carried out according to the method recently described. […] In this assay the latency to the occurrence of the first clonic seizure episode was measured and compared in drug-treated and control mice. […] The number of seizure episodes was also recorded in each group. • 6-Hz Test

[2] = tested on: tactile allodynia in diabetic mice; experiment: diabetic (STZ) neuropathic pain model, von Frey test; type: in vivo; details: 30 mg/kg i.p.
Protocol: Behavioral experiments were carried out in male Albino Swiss (CD-1) mice weighing 18–22 g. The mice were kept in cages, in groups of 10 animals. They had free access to food and water before experiments, and were maintained at room temperature 22–24 °C, under 12:12 (light/dark) cycle. For the assays the animals were selected randomly. After the experiments the animals were euthanized by cervical dislocation. […]
To induce type I diabetes and diabetic neuropathic pain, mice were administered STZ, an alkylating antitumor drug that destroys insulin-secreting islet cells. […] Blood glucose levels were measured 1 day before (referred to as ‘day 0′) and repeatedly 1, 2 and 3 weeks after STZ injection using a blood glucose monitoring system (AccuChek Active, Roche, France). […]
The electronic von Frey unit (Bioseb, France) is supplied with a single flexible filament applying increasing force (from 0 to 10 g) against the plantar surface of the hind paw. In this assay the nocifensive paw withdrawal response automatically turns off the stimulus and the mechanical pressure that evoked the response was recorded. […]

[3] = tested on: 6-Hz psychomotor seizures in mice; experiment: 6-Hz test; type: in vivo; details: 100 mg/kg i.p.
Protocol: as §1
(§2) Oxaliplatin was purchased from Activate Scientific GmbH (Prien, Germany). PTZ and STZ were provided by Merck KGaA (Darmstadt, Germany). For the in vivo tests, the compound 1 was suspended in 1% Tween 80 solution (Polskie Odczynniki Chemiczne, Gliwice, Poland), then being administered intraperitoneally 1 h before tests. For the evaluation of anticonvulsant properties of the test compound, a fixed dose of 100 mg/kg, was used. Since many AEDs at lower doses are used as analgesic drugs, for pain tests the doses 10 and 30 mg/kg were selected.
This test was performed according to Barton et al.. […]

[4] = tested on: SH-SY5Y neuroblastoma cells; experiment: cell viability, MTS assay; type: cell-based, human; details: 24 h incubation, 1–100 µM
Protocol: (§3) All cell culture protocols and assay conditions were applied as we reported previously. SH-SY5Y (ATCC® CRL-2266™) cell line was purchased from ATCC (Manassas, VA, USA). IMR-32 (ATCC® CCL-127™) cell line was kindly provided by the Department of Oncogenomics, Academisch Medisch Centrum, Amsterdam, Holland. Before each test SH-SY5Y or IMR-32 cells were seeded in 96-well plates with transparent bottom at a concentration of 2.5 × 10^4 cells/well in 100 μL of respective cell culture medium and cultured for 24 h to reach 70% confluence. • Cell Viability
(§4) The CellTiter 96® AQueous Non-Radioactive Cell Proliferation Assay was purchased from Promega (Madison, WI, USA). After 24 h of cells incubation with compound 1 or 8 in the concentrations range 1–100 µM the MTS-based labeling mixture was added to each well and cells were incubated under the same conditions for 2–3 h. The absorbance was measured using a microplate reader EnSpire (PerkinElmer, Waltham, MA, USA) at 490 nm. All measurements were performed in triplicate and results are shown as mean ± SD. • Lactate Dehydrogenase Test

[5] = tested on: IMR-32 neuroblastoma cells; experiment: cell viability, MTS assay; type: cell-based, human; details: IMR-32, 24 h incubation, 1–100 µM
Protocol: as §3, §4

[6] = tested on: cold hyperalgesia in oxaliplatin-treated mice; experiment: oxaliplatin-induced neuropathic pain model, cold plate test; type: in vivo; details: 10 and 30 mg/kg i.p., early and late phase
Protocol: as §1
as §2, with “selected. […]” for “selected.”
The effect of 1 on cold pain threshold was assessed using the cold plate test. […]

NC(Cc1cc(-c2cc(O)ccc2O)c(Cl)c([N+](=O)[O-])c1)C(=O)O (centres unmarked) [Compound 1]
latency to first clonus [1]: not able to prolong latency to the first clonus
number of seizure episodes [1]: remained unaffected
antiallodynic activity, von Frey test [2]: not able to attenuate tactile allodynia
Mortality rate (%) [3]: 0%
X/Y, number of mice protected (X) per number of mice tested (Y) ([3]; 1 h before test): 3/4
cell viability [4]: no influence on cell viability
cell viability [5]: no influence on cell viability
effect on cold hyperalgesia, cold plate test [6]: unable to attenuate cold hyperalgesia
